Target: C-C chemokine receptor type 2 (Homo sapiens, UniProt P41597)
Assay: Antagonist activity at CCR2 (unknown origin)

C-C chemokine receptor type 2, sequence (P41597 whole entry): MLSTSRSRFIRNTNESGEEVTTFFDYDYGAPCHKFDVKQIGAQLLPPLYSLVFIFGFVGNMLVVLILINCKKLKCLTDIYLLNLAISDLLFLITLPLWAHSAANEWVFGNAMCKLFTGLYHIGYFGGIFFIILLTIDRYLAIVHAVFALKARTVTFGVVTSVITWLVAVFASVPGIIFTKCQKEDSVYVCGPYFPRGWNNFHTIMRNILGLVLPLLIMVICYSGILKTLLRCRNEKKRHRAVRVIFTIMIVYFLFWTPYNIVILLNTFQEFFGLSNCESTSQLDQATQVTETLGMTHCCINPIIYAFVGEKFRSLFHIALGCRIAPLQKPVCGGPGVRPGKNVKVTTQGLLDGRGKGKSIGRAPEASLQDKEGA

CC(C)[C@]1(C(=O)NCc2cc(C(F)(F)F)cc(C(F)(F)F)c2)CC[C@@H](NC2CCc3ccccc3C2)C1 (stereo partly specified)
IC50: 187 nM

CC(C)[C@]1(C(=O)NCc2cc(C(F)(F)F)cc(C(F)(F)F)c2)CC[C@@H](NC2CCOCC2)C1
IC50: 56 nM

CC(C)[C@]1(C(=O)NCc2cc(C(F)(F)F)cc(C(F)(F)F)c2)CC[C@@H](NC2CCOCC2F)C1 (stereo partly specified)
IC50: 51.1 nM

CC(C)[C@]1(C(=O)NCc2cc(C(F)(F)F)cc(C(F)(F)F)c2)CC[C@@H](NC2CCOCC2(C)C)C1 (stereo partly specified)
IC50: 28 nM

CC(C)[C@]1(C(=O)NCc2cc(C(F)(F)F)cc(C(F)(F)F)c2)CC[C@@H](NC2CCOCC2C2CC2)C1 (stereo partly specified)
IC50: 7.8 nM

CCC1COCCC1N[C@@H]1CC[C@@](C(=O)NCc2cc(C(F)(F)F)cc(C(F)(F)F)c2)(C(C)C)C1 (stereo partly specified)
IC50: 1.5 nM

CC(C)[C@]1(C(=O)NCc2cc(C(F)(F)F)cc(C(F)(F)F)c2)CC[C@@H](NC2CCSC2)C1 (stereo partly specified)
IC50: 22 nM

CC(C)[C@]1(C(=O)NCc2cc(C(F)(F)F)cc(C(F)(F)F)c2)CC[C@@H](NC2CCCOC2)C1 (stereo partly specified)
IC50: 4.6 nM

CC(C)[C@]1(C(=O)NCc2cc(C(F)(F)F)cc(C(F)(F)F)c2)CC[C@@H](NC2CCOCC2O)C1 (stereo partly specified)
IC50: 123 nM

CC(C)[C@]1(C(=O)NCc2cc(C(F)(F)F)cc(C(F)(F)F)c2)CC[C@@H](NC2CCSCC2)C1
IC50: 36 nM

CC(C)[C@]1(C(=O)NCc2cc(C(F)(F)F)cc(C(F)(F)F)c2)CC[C@@H](NC2CCOCC2C(F)(F)F)C1 (stereo partly specified)
IC50: 6 nM

CC1COCC(C)C1N[C@@H]1CC[C@@](C(=O)NCc2cc(C(F)(F)F)cc(C(F)(F)F)c2)(C(C)C)C1 (stereo partly specified)
IC50: 230 nM

CC1COCCC1N[C@@H]1CC[C@@](C(=O)NCc2cc(C(F)(F)F)cc(C(F)(F)F)c2)(C(C)C)C1 (stereo partly specified)
IC50: 239 nM

CC1CC(N[C@@H]2CC[C@@](C(=O)NCc3cc(C(F)(F)F)cc(C(F)(F)F)c3)(C(C)C)C2)CCO1 (stereo partly specified)
IC50: 766 nM

CC(C)[C@]1(C(=O)NCc2cc(C(F)(F)F)cc(C(F)(F)F)c2)CC[C@@H](NC2CCOCC2(O)C(F)(F)F)C1 (stereo partly specified)
IC50: 5.5 nM

CCCC1COCCC1N[C@@H]1CC[C@@](C(=O)NCc2cc(C(F)(F)F)cc(C(F)(F)F)c2)(C(C)C)C1 (stereo partly specified)
IC50: 3 nM
